Measured values published in patent US8980917B2, “Methods for treating or preventing brain infections” (The Johns Hopkins University, priority 2008, dated 2015).
“Also recorded” adds a separate entry of the source.

How the values were obtained:
E. coli K1 strain RS218 [1] = assay: Infant rat model of experimental hematogenous E. coli meningitis; assay type: in vivo; details: 5-day-old rats, 9 animals; i.p. 50 μg/10 gm one hour before bacteria; p < 0.001 by Fisher's exact test
Protocol: Experimental hematogenous E. coli meningitis was induced in 5-day old rats as previously described (9, 10, 14, 28). Briefly, outbred, specific-pathogen-free pregnant Sprague-Dawley rats with timed conception were purchased from Charles River Breeding laboratory (Wilmington, Mass.). The rats delivered in our vivarium 5 to 7 days after arrival. At 5 days of age, all members of each litter were randomly divided into two groups, to receive intraperitoneally montelukast (50 μg/10 gm of weight in 50 μl PBS) or vehicle control (3.3% DMSO in 50 μl PBS). One hour later, each animal received 1×10^7 CFU of E. coli K1 strain RS218 via intracardiac injection. At one hour after bacterial injection, blood and CSF specimens were obtained as described previously (9, 10, 14, 28) for quantitative cultures. The development of E. coli meningitis (defined as positive CSF cultures) was compared between the two groups of animals.
We also examined one of the CysLT1 antagonists for its effect on E. coli K1 penetration into the brain in our well-characterized infant rat model of experimental hematogenous E. coli meningitis (9, 10, 14, 28). At 5 days of age, all members of each litter were randomly divided to receive intraperitoneally montelukast or vehicle control. […] At one hour after bacterial inoculation, blood and cerebrospinal fluid (CSF) specimens were obtained for quantitative cultures.

HBMEC monolayers = assay: Integrity of HBMEC monolayers by TEER before and after transcytosis assays; assay type: cell-based, human; details: at 50 μM
Excerpt: We also examined the effect of C. neoformans traversal on the HBMEC monolayer integrity, as measured by passive diffusion of ^3H-inulin and TEER at the end of the transcytosis experiment as described previously (7).

[2] = developed for asthma; cited from earlier work
E. coli K1 strain RS218 [3] = assay: Mouse model of experimental hematogenous E. coli meningitis (cPLA2α-/- and wild type BALB/c mice); assay type: in vivo; details: i.v. 1.2 μg/mouse in 50 μl PBS 30 mins before bacterial injection
Protocol: cPLA2α−/− and wild type mice, either male or female, […] that had been backcrossed on the BALB/c strain for >10 generations were used^14. All procedures and handling techniques were approved by The Johns Hopkins Animal Care and Use Committee.
Each mouse received 1×10^7 CFU of E. coli K1 strain RS218 in 100 μl PBS via the tail vein. One hour later, mouse chest was cut open, and blood from right ventricle was collected and plated for bacteria counts, which were expressed as CFUs/ml of blood. The mouse was then perfused with a mammalian Ringer's solution by transcardiac perfusion through a 23-gauge needle inserted into the left ventricle of the heart under the perfusion pressure of about 100 mmHg. The perfusate exited through a cut in the right atrium. […] The brains were removed, weighed and homogenized in 2 ml RPMI followed by plating for bacterial counts, which were expressed as CFUs/gm. Since E. coli K1 penetration into the brain is shown to depend on the magnitude of bacteremia^5,7, bacterial penetration into the brain was also expressed as [(brain CFUs per gm)/(blood CFUs per ml)]×100. Kidneys and spleens were also removed, homogenized and plated for determination of bacterial counts, which were expressed as CFUs/gm. […]

blood-brain barrier = assay: Blood-brain barrier permeability by Evans blue dye extravasation into the brain; assay type: in vivo, mouse; details: cPLA2α-/- mice
C. neoformans = assay: Mouse model of C. neoformans meningitis/meningoencephalitis following intravenous inoculation; assay type: in vivo; details: strain B-3501A; cPLA2α-/- mice; i.v. 1.2 μg/mouse 30 mins before C. neoformans injection; 24 hours
Protocol: The mouse model of Cryptococcal meningitis/meningoencephalitis following intravenous inoculation was used to determine the hematogenous dissemination of C. neoformans to the brain as described previously (7, 8). C. neoformans strains grown on 1% yeast extracts, 2% peptone and 2% dextrose (YPD) agar were suspended in phosphate-buffered saline (PBS, pH 7.4) and counted with a hemocytometer to determine the yeast cell number. This suspension was also cultured on YPD agar plates, and colonies (CFUs) counted after 3 days of incubation at 30° C. as previously described (11). The inoculum size was confirmed by CFUs.
Briefly, female BALB/c mice received 10^5 yeast cells via the tail vein. 24 hours later, the blood specimens were obtained for determination of CFUs, and the animals perfused with sterile Ringer's solution until the perfused solution became colorless. The brains were removed, weighed, homogenized and cultured on YPD agar for determination of CFUs.
cPLA2α. We examined the role of host cPLA2α in C. neoforman strain B-3501A penetration into the brain by studying cPLA2α−/− mice as compared to their strain-matched wild type mice. Each animal received 10^5 yeast cells via the tail vein. 24 hours later, the blood specimens were obtained for determination of CFUs, and the animals perfused with sterile Ringer's solution until the perfused solution became colorless. […]

| Compound | % of animals with meningitis (positive CSF cultures) (E. coli K1 strain RS218 [1]) | No. of animals with meningitis (positive CSF cultures) (E. coli K1 strain RS218 [1]) | integrity of the HBMEC monolayers (TEER) (HBMEC monolayers) | safety and tolerability in clinical trials [2] | E. coli K1 penetration into the brain (brain CFU/gm and percent of brain CFU/blood CFU) (E. coli K1 strain RS218 [3]) | blood-brain barrier permeability (Evans blue extravasation into the brain) (blood-brain barrier; 1.2 μg i.v. 30 min before E. coli RS218 injection) | blood-brain barrier permeability (Evans blue extravasation into the brain) (blood-brain barrier; 1.2 μg/mouse i.v. 30 mins before C. neoformans injection) | C. neoformans penetration into the brain (CFU/gm) (C. neoformans) |
| --- | --- | --- | --- | --- | --- | --- | --- | --- |
| CC(C)(O)c1ccccc1CC[C@@H](SCC1(CC(=O)O)CC1)c1cccc(/C=C/c2ccc3ccc(Cl)cc3n2)c1 [montelukast] | 22% | 2 | did not affect the integrity of the HBMEC monolayers | safe and well tolerated | – | – | – | – |
| CCCCC/C=C\C/C=C\C/C=C\C/C=C\CCCC(=O)O [arachidonic acid, Arachidonic acid] | – | – | – | – | significantly enhanced E. coli K1 penetration into the brain to the level observed in the wild type mice | no significantly increased extravasation of intravenously administered Evans blue dye into the brain; also recorded: did not affect the blood-brain barrier permeability | not accompanied by any change in the blood-brain barrier permeability | significantly enhanced C. neoformans penetration into the brain to the level observed in the wild type mice |
